Measured values reported in patent US6843979B2, “4-haloethenylphenyl tropane:serotonin transporter imaging agents” (Emory University, priority 1999, dated 2005).

Key:
SERT sites = SERT sites (Macaca mulatta, UniProt Q9MYX0); test: SPECT imaging and fluvoxamine chase study in rhesus monkey; conditions: for Displacement of tracer by fluvoxamine (SPECT): fluvoxamine 5 mg i.v., midbrain / brainstem; for Brain uptake by SPECT: midbrain by 54 min, brainstem at 80-110 min
Excerpt: SPECT images were reconstructed as transaxial slices (3.2 mm) and attenuation corrected.

rat brain SERT = rat brain SERT (Rattus norvegicus, UniProt P31652); test: Regional brain uptake of [123I]ZIENT in rats with blocking agents
rat brain SERT, sequence (P31652 whole entry): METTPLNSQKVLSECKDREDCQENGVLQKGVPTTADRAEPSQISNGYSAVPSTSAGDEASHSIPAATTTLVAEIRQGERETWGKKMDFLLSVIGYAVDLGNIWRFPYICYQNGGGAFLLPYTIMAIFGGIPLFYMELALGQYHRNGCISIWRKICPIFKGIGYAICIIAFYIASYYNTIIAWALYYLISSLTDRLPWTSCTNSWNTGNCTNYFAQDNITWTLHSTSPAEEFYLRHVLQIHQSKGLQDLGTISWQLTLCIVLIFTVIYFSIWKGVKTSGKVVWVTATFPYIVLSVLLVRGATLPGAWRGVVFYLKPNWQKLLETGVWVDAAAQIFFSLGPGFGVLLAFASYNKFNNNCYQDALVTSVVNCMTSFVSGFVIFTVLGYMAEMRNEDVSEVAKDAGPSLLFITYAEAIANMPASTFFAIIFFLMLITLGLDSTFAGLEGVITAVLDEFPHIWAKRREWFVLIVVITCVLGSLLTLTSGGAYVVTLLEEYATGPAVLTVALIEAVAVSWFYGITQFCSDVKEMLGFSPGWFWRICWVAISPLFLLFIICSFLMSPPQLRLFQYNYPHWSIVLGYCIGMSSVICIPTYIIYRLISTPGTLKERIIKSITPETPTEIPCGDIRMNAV

SERT = test: SPECT imaging in baboon; assay type: in vivo; conditions: anesthetized baboon, 300-360 min
Procedure: FIG. 7 is a graph showing time activity curves of [^123I]ZIENT in a baboon.
The baboon was injected with 10 mCi of [^123I]ZIENT and serial images (128×128×64 matrix: pixel size=1.67×1.67 mm, slice, thickness=1.67 mm, voxel volume=4.66 mm^3) were acquired at 159 keV, in step and shoot mode at 10 min each for a total of 360 to 390 min and 32 to 35 acquisitions per experiment. Images were reconstructed using a ramp and a Butterworth filter (cutoff=0.65 cm-power factor=10). To identify brain regions, MRI scans of 1.5 mm contiguous slices were obtained with a 1.5 Tesla GE Signa device. Axial images were acquired using a spoiled GRASS (gradient recall acquisition in the steady state) sequence with TR=25 ms, TE=5 ms, NEX=2, matrix=256×192, field of view=16 cm. […] The uptake ratio of brainstem/cerebellum was 3.0:1 at 300-360 min.

[1] = Tissue uptake of [123I]ZIENT in rats; conditions: rat
[2] = 5 mg/kg i.v. 15 min prior, 60 min
[3] = 60 min, Fluvoxamine 5 mg/kg i.v. 15 min prior
[4] = 60 min, GBR 12909 5 mg/kg i.v. 15 min prior
[5] = 60 min after i.v., listed as [^123]ZIENT

SERT sites, sequence (Q9MYX0 whole entry): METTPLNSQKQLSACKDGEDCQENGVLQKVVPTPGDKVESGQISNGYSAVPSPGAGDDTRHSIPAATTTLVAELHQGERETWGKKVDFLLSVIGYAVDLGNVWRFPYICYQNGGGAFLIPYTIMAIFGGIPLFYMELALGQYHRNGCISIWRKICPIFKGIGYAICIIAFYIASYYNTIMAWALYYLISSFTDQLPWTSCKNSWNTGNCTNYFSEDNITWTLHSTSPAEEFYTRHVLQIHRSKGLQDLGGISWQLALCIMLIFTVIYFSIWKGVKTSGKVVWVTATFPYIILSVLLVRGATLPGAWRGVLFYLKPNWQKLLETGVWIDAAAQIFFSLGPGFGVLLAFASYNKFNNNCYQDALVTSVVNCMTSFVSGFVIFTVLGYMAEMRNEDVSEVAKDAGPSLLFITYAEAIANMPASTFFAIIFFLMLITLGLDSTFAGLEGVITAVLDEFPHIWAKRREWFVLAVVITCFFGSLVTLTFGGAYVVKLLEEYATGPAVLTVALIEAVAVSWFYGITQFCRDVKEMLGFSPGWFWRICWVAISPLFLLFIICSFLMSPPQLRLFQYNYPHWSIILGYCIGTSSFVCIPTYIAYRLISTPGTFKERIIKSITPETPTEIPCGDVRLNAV

Compound: COC(=O)C1C2CCC(CC1c1ccc(C=C[123I])cc1)N2 (stereo not shown) [[^123I]ZIENT]
- Displacement of tracer by fluvoxamine (SPECT) (SERT sites): significant reduction of activity
- Displacement of tracer by fluvoxamine (SPECT) (SERT sites; listed as [^123I] ZIENT): significantly displaced
- Brain uptake by SPECT (SERT sites): regions of highest uptake
- Brain uptake by SPECT (SERT sites; listed as [^123I] ZIENT): high
- Effect of GBR 12909 (DAT ligand) on tracer uptake in striatum (rat brain SERT; [2]): did not significantly block
- Effect of NET blocking agent (reboxetine) on regional brain uptake of tracer (rat brain SERT; [2]): little effect
- Effect of fluvoxamine (SERT ligand) on tracer uptake in hypothalamus and striatum (rat brain SERT; [2]): significantly blocked
- Hypothal/(CB) ratio (rat brain SERT; [3]): 1.3
- Regional uptake, Brain (rat brain SERT; [3]): 0.27 (0.24 0-0.30) % dose/g
- Regional uptake, Cerebellum (rat brain SERT; [3]): 0.18 (0.16-0.20) % dose/g
- Regional uptake, Frontal Cortex (rat brain SERT; [3]): 0.26 (0.23-0.29) % dose/g
- Regional uptake, Hypothalamus (rat brain SERT; [3]): 0.23 (0.18-0.27) % dose/g
- Regional uptake, Striatum (rat brain SERT; [3]): 0.28 (0.24-0.32) % dose/g
- Striatum/(CB) ratio (rat brain SERT; [3]): 1.6
- Hypothal/(CB) ratio (rat brain SERT; [4]): 1.8
- Regional uptake, Brain (rat brain SERT; [4]): 0.39 (0.37-0.42) % dose/g
- Regional uptake, Cerebellum (rat brain SERT; [4]): 0.21 (0.18-0.26) % dose/g
- Regional uptake, Frontal Cortex (rat brain SERT; [4]): 0.43 (0.38-0.47) % dose/g
- Regional uptake, Hypothalamus (rat brain SERT; [4]): 0.38 (0.34-0.41) % dose/g
- Regional uptake, Striatum (rat brain SERT; [4]): 0.40 (0.37-0.42) % dose/g
- Striatum/(CB) ratio (rat brain SERT; [4]): 1.9
- Hypothal/(CB) ratio (rat brain SERT; 60 min after i.v.): 2.7
- Regional uptake, Brain (rat brain SERT; 60 min after i.v.): 0.61 (0.56-0.63) % dose/g
- Regional uptake, Cerebellum (rat brain SERT; 60 min after i.v.): 0.29 (0.28-0.31) % dose/g
- Regional uptake, Frontal Cortex (rat brain SERT; 60 min after i.v.): 0.70 (0.65-0.78) % dose/g
- Regional uptake, Hypothalamus (rat brain SERT; 60 min after i.v.): 0.7 % dose/g
- Regional uptake, Striatum (rat brain SERT; 60 min after i.v.): 0.60 (0.54-0.63) % dose/g
- Striatum/(CB) ratio (rat brain SERT; 60 min after i.v.): 2.1
- Hypothal/(CB) ratio (rat brain SERT; 60 min after i.v., listed as [^123I] ZIENT): 3
- Hypothal/(CB) ratio (rat brain SERT; [5]): 2.7
- Regional uptake, Hypothalamus (rat brain SERT; [5]): 0.77 (0.69-0.83) % dose/g
- Hypothal/(CB) ratio (rat brain SERT; 120 min after i.v.): 4.4
- Regional uptake, Brain (rat brain SERT; 120 min after i.v.): 0.40 (0.32-0.50) % dose/g
- Regional uptake, Cerebellum (rat brain SERT; 120 min after i.v.): 0.12 (0.11-0.28) % dose/g
- Regional uptake, Frontal Cortex (rat brain SERT; 120 min after i.v.): 0.48 (0.42-0.53) % dose/g
- Regional uptake, Hypothalamus (rat brain SERT; 120 min after i.v.): 0.53 (0.44-0.60) % dose/g
- Regional uptake, Striatum (rat brain SERT; 120 min after i.v.): 0.46 (0.37-0.55) % dose/g
- Striatum/(CB) ratio (rat brain SERT; 120 min after i.v.): 3.8
- Hypothal/(CB) ratio (rat brain SERT; 120 min after i.v., listed as [^123I] ZIENT): 5
- Hypothal/(CB) ratio (rat brain SERT; 120 min after i.v., listed as [^123]ZIENT): 4.4
- Prefrontal cortex to cerebellum ratio (rat brain SERT; 120 min post injection): 2.9
- Clearance from the hypothalamus (rat brain SERT; at 120 min compared to 60 min post injection): 30%
- Uptake ratio of brainstem/cerebellum (SERT): 3.0
- Tissue uptake, Blood ([1]; 5 min after i.v.): 0.64 (0.52-0.86) percent dose per gram
- Tissue uptake, Heart ([1]; 5 min after i.v.): 2.41 (2.36-2.47) percent dose per gram
- Tissue uptake, Kidney ([1]; 5 min after i.v.): 2.35 (2.16-2.67) percent dose per gram
- Tissue uptake, Liver ([1]; 5 min after i.v.): 0.99 (0.73-1.33) percent dose per gram
- Tissue uptake, Lung ([1]; 5 min after i.v.): 9.71 (7.9-11.8) percent dose per gram
- Tissue uptake, Muscle ([1]; 5 min after i.v.): 0.30 (0.15-0.44) percent dose per gram
- Tissue uptake, Spleen ([1]; 5 min after i.v.): 3.79 (3.28-4.67) percent dose per gram
- Tissue uptake, Testis ([1]; 5 min after i.v.): 0.22 (0.19-0.27) percent dose per gram
- Tissue uptake, Thyroid ([1]; 5 min after i.v.): 0.11 (0.08-0.12) percent dose per gram
- Tissue uptake, Blood ([1]; 30 min after i.v.): 0.46 (0.43-0.49) percent dose per gram
- Tissue uptake, Heart ([1]; 30 min after i.v.): 0.52 (0.48-0.55) percent dose per gram
- Tissue uptake, Kidney ([1]; 30 min after i.v.): 0.66 (0.64-0.70) percent dose per gram
- Tissue uptake, Liver ([1]; 30 min after i.v.): 0.43 (0.38-0.51) percent dose per gram
- Tissue uptake, Lung ([1]; 30 min after i.v.): 1.48 (1.35-1.66) percent dose per gram
- Tissue uptake, Muscle ([1]; 30 min after i.v.): 0.29 (0.25-0.32) percent dose per gram
- Tissue uptake, Spleen ([1]; 30 min after i.v.): 1.24 (1.03-1.50) percent dose per gram
- Tissue uptake, Testis ([1]; 30 min after i.v.): 0.36 (0.30-0.47) percent dose per gram
- Tissue uptake, Thyroid ([1]; 30 min after i.v.): 0.23 (0.19-0.29) percent dose per gram
- Tissue uptake, Blood ([1]; 60 min after i.v.): 0.39 (0.23-0.42) percent dose per gram
- Tissue uptake, Heart ([1]; 60 min after i.v.): 0.36 (0.15-0.40) percent dose per gram
- Tissue uptake, Kidney ([1]; 60 min after i.v.): 0.44 (0.29-0.50) percent dose per gram
- Tissue uptake, Liver ([1]; 60 min after i.v.): 0.28 (0.11-0.30) percent dose per gram
- Tissue uptake, Lung ([1]; 60 min after i.v.): 1.27 (0.62-1.44) percent dose per gram
- Tissue uptake, Muscle ([1]; 60 min after i.v.): 0.20 (0.11-0.22) percent dose per gram
- Tissue uptake, Spleen ([1]; 60 min after i.v.): 0.82 (0.50-0.94) percent dose per gram
- Tissue uptake, Testis ([1]; 60 min after i.v.): 0.29 (0.26-0.34) percent dose per gram
- Tissue uptake, Thyroid ([1]; 60 min after i.v.): 0.33 (0.17-0.37) percent dose per gram
- Tissue uptake, Blood ([1]; 120 min after i.v.): 0.33 (0.31-0.36) percent dose per gram
- Tissue uptake, Heart ([1]; 120 min after i.v.): 0.20 (0.18-0.24) percent dose per gram
- Tissue uptake, Kidney ([1]; 120 min after i.v.): 0.32 (0.29-0.35) percent dose per gram
- Tissue uptake, Liver ([1]; 120 min after i.v.): 0.29 (0.23-0.41) percent dose per gram
- Tissue uptake, Lung ([1]; 120 min after i.v.): 0.72 (0.61-0.78) percent dose per gram
- Tissue uptake, Muscle ([1]; 120 min after i.v.): 0.16 (0.14-0.18) percent dose per gram
- Tissue uptake, Spleen ([1]; 120 min after i.v.): 0.51 (0.44-0.55) percent dose per gram
- Tissue uptake, Testis ([1]; 120 min after i.v.): 0.30 (0.26-0.33) percent dose per gram
- Tissue uptake, Thyroid ([1]; 120 min after i.v.): 1.61 (0.82-2.31) percent dose per gram
